Results taken from article PMC9011347, “Small-Molecule Inhibitors Targeting Lipolysis in Human Adipocytes” (Journal of the American Chemical Society, 2022).

System: lipoprotein lipase (LPL) and hepatic lipase (HL)
Assay: Heparin-releasable TAG hydrolase activity in post-heparin plasma
Format: biochemical
Settings: NG-497 100 µM, radiolabeled triolein
Description: Fig. S3: Investigation of off-target effects of NG-497 on structurally and functionally related lipid hydrolases. (a) PNPLA1-dependent formation of acylceramides was monitored in a cell-based assay in HEK293T cells. Experiments were performed in the presence or absence of NG-497 (40 µM) and the non-selective lipase inhibitor Orlistat (40 µM). Orlistat, but not NG-497, inhibited PNPLA1/CGI-58-dependent ω-O-acylceramide formation. (b-h) Enzymes were overexpressed in Expi293 cells and cell lysates were used as source of enzymatic activity. […] Experiments were performed in the presence or absence of NG-497 (100 µM) and the formation of reaction products was monitored. […]
Data were calculated relative to the basal activity detected in LacZ-transfected controls. […]
LPL activity was inhibited using an anti-LPL antibody. All data are presented as mean ± S.D. Statistical significance was determined via ANOVA followed by Bonferroni post hoc test ( ***, p < 0.001). […]
Released free fatty acids were quantified via NEFA C kit (Fujifilm Wako Chemicals, Neuss, Germany) and release of p-nitrophenol was measured at 405 nm. […] Cellular ω-O-acylceramide formation was monitored using [1-14C]linoleic acid as tracer. […] The activity of purified human pancreatic lipase (MilliporeSigma #SRE0028) was determined as previously described7 in the presence or absence of NG-497 (100µM) or Orlistat (20 µM). […]

CCOc1ccc(-c2cc(OC)cc(C(=O)OC(C)C)n2)cc1 [NG-497]
inhibition of heparin-releasable TAG hydrolase activity in human serum: did not observe inhibition
